Data on 22 compounds can be found in publication PMC7125024 (ChemMedChem, 2020).

What is called IC50 is the midpoint of a concentration-inhibition curve. As a reminder, the inhibition is the percentage by which the read-out fell short of the control. By % inhibition is commonly meant the change of the read-out against control, counted positive when it falls. What is called microsomal CLint is the rate of metabolic loss divided by the concentration. Read a high microsomal CLint as faster metabolism.

Structures are written as SMILES. Counter-ions that a name gives are not always drawn. Like-named read-outs stand apart in the source and are kept apart here. Where only a bound is given, the exact number is not on record here.

Series [1] has as its target human recombinant LSD1/CoREST enzymatic complex (Homo sapiens, UniProt O60341). Nature of the series: LSD1 enzyme inhibition assay. Format: biochemical.
The test system of series [2] is NB4 APL cells. Kind of series: cells. The settings on record: Homo sapiens, 48 h, read-out: IC50 NB4 (antiproliferative activity).
In series [3] the test system is MV4–11 AML cells. Kind of series: cells. The settings on record: Homo sapiens, MV4-11, 48 h, read-out: IC50 MV4–11 (antiproliferative activity).
For series [4], the target named is T1, human MAO B (Homo sapiens, UniProt P27338).
T1 sequence (P27338 1-520): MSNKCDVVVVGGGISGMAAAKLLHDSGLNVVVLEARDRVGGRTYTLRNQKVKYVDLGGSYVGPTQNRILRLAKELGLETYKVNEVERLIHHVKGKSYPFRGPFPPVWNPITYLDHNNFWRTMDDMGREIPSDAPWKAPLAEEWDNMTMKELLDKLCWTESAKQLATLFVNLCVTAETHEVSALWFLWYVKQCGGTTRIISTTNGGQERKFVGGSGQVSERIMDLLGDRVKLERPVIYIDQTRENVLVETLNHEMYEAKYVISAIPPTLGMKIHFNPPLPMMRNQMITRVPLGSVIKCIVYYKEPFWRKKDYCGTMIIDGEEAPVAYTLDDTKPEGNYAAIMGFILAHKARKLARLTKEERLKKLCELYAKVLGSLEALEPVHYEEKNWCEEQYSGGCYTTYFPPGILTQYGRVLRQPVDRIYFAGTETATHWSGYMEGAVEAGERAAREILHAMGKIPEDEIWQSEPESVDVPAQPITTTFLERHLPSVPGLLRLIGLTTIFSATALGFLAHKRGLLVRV
Nature of the series: Anti-MAO assay. Format: biochemical. The note with it: read-out: % inhibition at 100 μM MAO B.

A further series has as its target T2, human MAO A (Homo sapiens, UniProt P21397).
T2 sequence (P21397 1-527): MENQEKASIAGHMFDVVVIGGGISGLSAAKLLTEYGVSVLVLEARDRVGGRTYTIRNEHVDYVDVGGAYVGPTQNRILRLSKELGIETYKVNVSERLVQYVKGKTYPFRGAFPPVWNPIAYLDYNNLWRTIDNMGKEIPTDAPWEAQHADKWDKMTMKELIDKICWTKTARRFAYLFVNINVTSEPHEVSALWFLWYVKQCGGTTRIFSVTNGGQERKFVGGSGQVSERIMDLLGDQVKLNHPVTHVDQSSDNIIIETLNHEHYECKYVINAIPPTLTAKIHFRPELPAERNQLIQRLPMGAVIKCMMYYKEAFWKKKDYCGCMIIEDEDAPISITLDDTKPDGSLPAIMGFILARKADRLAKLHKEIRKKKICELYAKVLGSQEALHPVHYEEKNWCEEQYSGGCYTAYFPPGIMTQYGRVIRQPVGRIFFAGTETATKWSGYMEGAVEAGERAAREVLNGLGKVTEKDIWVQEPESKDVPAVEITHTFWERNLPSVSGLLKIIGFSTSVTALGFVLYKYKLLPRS
Kind of series: Anti-MAO assay. Format: biochemical. The note with it: for inhibition at 100 µM: read-out: % inhibition at 100 μM MAO A; for % inhibition at 100 μM MAO A: NI = no inhibition.

Series [5] has as its system NB4 APL cells. The note with it: read-out: IC50 NB4 (antiproliferative activity), 48 h.
Series [6] deals with MV4–11 AML cells. The settings on record: read-out: IC50 MV4–11 (antiproliferative activity), 48 h.
Series [7] has as its target T1, human MAO B. The settings on record: added for comparison, ref [13b], [19]; cited from earlier work.
Series [8] is described as follows: Microsomal stability in liver microsomes. The series is classed as in vitro ADME. The note with it: mouse, pH 7.4.
A short description of series [9]: Microsomal stability in liver microsomes. Format: in vitro ADME. The settings on record: human, pH 7.4.
Where [10] appears, read: read-out: LSD1, IC50, LSD1/CoREST, 15 min preincubation, NI = no inhibition.

Take `CN(C)C1CC1c1ccccc1` (centres unmarked) [4b, N,N-dimethyl-TCP]: the concentration for half-maximal inhibition (IC50) in series [1] (setting [10]) was determined as 56.2 ± 7.8 µM. Moreover, the “LSD1/CoREST potency relative to TCP (fold less effective)” value in [1] was 5 fold.

For the compound `Cl.NC1CC1c1cccc(NC(=O)C(Cc2ccccc2)NC(=O)OCc2ccccc2)c1` (centres unmarked) [2b, Benzyl (1-((3-(2-aminocyclopropyl)phenyl)amino)-1-oxo-3-phenylpropan-2-yl)carbamate hydrochloride], the 50% inhibitory concentration (IC50) in the series with NB4 APL cells [2] amounted to 42.7 ± 5.8 µM; in [1], 18.1 ± 2.9 µM; in the series on MV4–11 AML cells [3] it was 24.2 ± 3.1 µM. Moreover, in series [1], the “fold decrease of anti-LSD1 potency relative to 2a” value is listed as greater than 120 fold.

In the case of `NC1(c2ccc(NC(=O)C(Cc3ccccc3)NC(=O)OCc3ccccc3)cc2)CC1` (centres unmarked) [4f, Benzyl (1-((4-(1-aminocyclopropyl)-phenyl)-amino)-1-oxo-3-phenylpropan-2-yl)-carbamate hydrochloride], the IC50 in series [1] (setting [10]) is greater than 100 µM.

As to `NC1CC1c1ccc(NC(=O)c2cc(NC(=O)c3ccccc3)ccc2OCC(=O)Nc2ccccc2)cc1` (centres unmarked) [3m, N-(4-(2-aminocyclopropyl)phenyl)-5-benzamido-2-(2-oxo-2-(phenylamino)ethoxy)benzamide hydrochloride], the IC50 in the series with NB4 APL cells [2] came out at 5.5 ± 1.4 µM; in series [1] it was 3.9 ± 0.2 µM; in the series on MV4–11 AML cells [3], 5.6 ± 1.1 µM.

In the case of `NC1CC1c1ccc(NC(=O)c2ccc(Oc3ccccc3)c(NC(=O)OCc3ccccc3)c2)cc1` (centres unmarked) [3h, Benzyl (5-((4-(2-aminocyclopropyl)phenyl)carbamoyl)-2-phenoxyphenyl)carbamate hydrochloride], the results for the IC50 (with NB4 APL cells [2]; in [1]; in the series with MV4–11 AML cells [3]) were 5.4 ± 0.6 µM, 0.143 ± 0.028 µM and 3.3 ± 0.3 µM, respectively.

Turning to `NC1CC1c1ccc(NC(=O)OCc2ccccc2)cc1` (centres unmarked) [1b, benzyl [4-(2-aminocyclopropyl)phenyl]carbamate], the inhibition at 100 µM was determined as 37% at human MAO B [4] and 96% at human MAO A. Further, the IC50 was 25 ± 3.2 µM with NB4 APL cells [2] and 22.4 ± 3.8 µM in the series on MV4–11 AML cells [3].

As to `CNC1CC1c1ccccc1` (centres unmarked) [4a, N-methyl-TCP], the IC50 in series [1] (setting [10]) came to 10.8 ± 1.1 µM. Also, in series [1], the “LSD1/CoREST potency relative to TCP (fold less effective)” value is “same potency of TCP”.

Regarding `NC1(c2ccccc2)CC1` [4e, 1-Phenylcyclopropan-1-amine hydrochloride], in [1] (setting [10]), the IC50 is greater than 100 µM.

`N[C@@H]1C[C@H]1c1ccccc1` (racemic) [TCP, tranylcypromine, reference compound]: the IC50 with NB4 APL cells [5] and in the series on MV4–11 AML cells [6] was greater than 100 µM throughout. Moreover, the “% inhibition at 100 μM MAO A” value on human MAO A is reported as 79%.

On to `NCC1(c2ccccc2)CC1` [4h, (1-phenylcyclopropyl)methanamine], for which the IC50 in series [1] (setting [10]) is greater than 100 µM.

Consider `NC1CC1c1ccc(NC(=O)c2ccccc2NC(=O)OCc2ccccc2)cc1` (centres unmarked) [3j, Benzyl (2-((4-(2-aminocyclopropyl)phenyl)carbamoyl)phenyl)carbamate hydrochloride], for which the inhibition at 100 µM came to 17% on human MAO B [4] and 72% on human MAO A. The IC50 in the series with NB4 APL cells [2] was 8.1 ± 0.9 µM; in series [1], 0.146 ± 0.022 µM; with MV4–11 AML cells [3], 8.2 ± 1.2 µM.

As for `NC1CC1c1ccc(NC(=O)c2cc(NC(=O)c3ccccc3)ccc2OCC(=O)NCc2ccccc2)cc1` (centres unmarked) [3n, N-(4-(2-aminocyclopropyl)phenyl)-5-benzamido-2-(2-(benzylamino)-2-oxoethoxy)benzamide], the IC50 with NB4 APL cells [2] was 3.8 ± 0.8 µM; in series [1], 1.7 ± 0.05 µM; in the series with MV4–11 AML cells [3], 3.3 ± 0.6 µM.

Regarding `NC1CC1c1ccc(NC(=O)c2ccc(-c3ccccc3)cc2NC(=O)OCc2ccccc2)cc1` (centres unmarked) [3l, Benzyl (4-((4-(2-aminocyclopropyl)phenyl)carbamoyl)-[1,1’-biphenyl]-3-yl)carbamate hydrochloride], the IC50 turned out to be 7.6 ± 0.8 µM in the series on NB4 APL cells [2], 0.135 ± 0.029 µM in series [1] and 8.1 ± 1 µM with MV4–11 AML cells [3].

Regarding `NNC(=O)C1CC1c1ccccc1` (centres unmarked) [4d, 2-phenylcyclopropane-1-carbohydrazide], in series [1] (setting [10]), the IC50 is greater than 100 µM.

With `NC1CC1c1ccc(NC(=O)C(Cc2ccccc2)NC(=O)OCc2ccccc2)cc1` (centres unmarked) [2a], the “% inhibition at 100 μM MAO B” value at human MAO B [7] is 1%.

For `NC1CC1c1ccc(NC(=O)c2ccc(NC(=O)OCc3ccccc3)cc2)cc1` (centres unmarked) [3a, Benzyl (4-((4-(2-aminocyclopropyl)phenyl)carbamoyl)phenyl)carbamate hydrochloride], the inhibition at 100 µM at human MAO B [4] was found to be 8%; at human MAO A, 37%. The IC50 was found to be 0.6 ± 0.02 µM in the series on NB4 APL cells [2], 0.09 ± 0.012 µM in [1] and 0.4 ± 0.01 µM in the series on MV4–11 AML cells [3]. In addition, the microsomal CLint at 1 μM amounted to 7.1 ± 2.2 µL/min/mg in series [8] and 6.7 ± 1.1 µL/min/mg in series [9].

Take `NN1CC1c1ccccc1` (centres unmarked) [4i, 2-phenylaziridin-1-amine]: the concentration for half-maximal inhibition (IC50) in series [1] (setting [10]) was greater than 100 µM.

With `NC(=O)C1CC1c1ccccc1` (centres unmarked) [4c, 2-Phenylcyclopropane-1-carboxamide], in series [1] (setting [10]), the IC50 was greater than 100 µM.

As for `Cl.NC1CC1c1ccc(NC(=O)c2ccc(Br)cc2NC(=O)OCc2ccccc2)cc1` (centres unmarked) [3k, Benzyl (2-((4-(2-aminocyclopropyl)phenyl)carbamoyl)-5-bromophenyl)carbamate hydrochloridrate], the IC50 in the series with NB4 APL cells [5] worked out at 9.3 ± 1 µM; in the series on MV4–11 AML cells [6] it was 6.2 ± 0.7 µM; in [1] (setting [10]), 0.159 ± 0.034 µM. Further, the “% inhibition at 100 μM MAO A” value on human MAO A came out at 94%.

Regarding `CN1CCN(c2cc(C(=O)Nc3ccc(C4CC4N)cc3)ccc2NC(=O)OCc2ccccc2)CC1` (centres unmarked) [3c, Benzyl 4-(4-(2-aminocyclopropyl)phenylcarbamoyl)-2-(4-methylpiperazin-1-yl)phenylcarbamate hydrochloride], the inhibition at 100 µM at human MAO B [4] stood at 55%; at human MAO A, 69%. Moreover, the 50% inhibitory concentration (IC50) with NB4 APL cells [2] came out at 0.9 ± 0.06 µM; in [1], 0.089 ± 0.01 µM; in the series on MV4–11 AML cells [3], 2.5 ± 0.1 µM.

`NC(=O)C1(c2ccccc2)CC1` [4g, 1-Phenylcyclopropane-1-carboxamide]: the half-inhibitory concentration (IC50) in series [1] (setting [10]) is greater than 100 µM.

As to `NC1CC1c1ccc(NC(=O)c2ccc(Sc3ccccc3)c(NC(=O)OCc3ccccc3)c2)cc1` (centres unmarked) [3i, Benzyl (5-((4-(2-aminocyclopropyl)phenyl)carbamoyl)-2-(phenylthio)phenyl)carbamate hydrochloride], the IC50 in the series on NB4 APL cells [2] came out at 23.2 ± 3.8 µM; in [1], 0.073 ± 0.011 µM; in the series with MV4–11 AML cells [3], 21.4 ± 3.3 µM.
